In the supplement of paper PMC10307832 one finds relative viability data, which are given here for 6 cell lines.

Holding throughout (assay): relative viability (nuclei count vs DMSO), 5 days (fraction); higher = more cells survive
Compound in the assay “Ponatinib + Phenformin”: Cc1ccc(C(=O)Nc2ccc(CN3CCN(C)CC3)c(C(F)(F)F)c2)cc1C#Cc1cnc2cccnn12 [Ponatinib] + N=C(N)NC(=N)NCCc1ccccc1 [Phenformin] (partner 250 µM)
Put shortly: (§1)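 The day after seeding in 1536-well plates, lung cancer cell lines were treated by pin tool with a single drug, or with a fixed anchor-drug dose together with five library-drug doses (not always all listed) in √10 steps. After 5 days, a combined fix-and-stain solution (final 0.05% Triton X-100, 1% formaldehyde, 1 ug/ml Hoechst) was added. Nuclei counted on 4× images gave relative viability as treated counts over vehicle counts, reported as the median of duplicate plates.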

Compound in the assay “Pazopanib + Linsitinib”: Cc1ccc(Nc2nccc(N(C)c3ccc4c(C)n(C)nc4c3)n2)cc1S(N)(=O)=O [Pazopanib] + C[C@]1(O)C[C@@H](c2nc(-c3ccc4ccc(-c5ccccc5)nc4c3)c3c(N)nccn32)C1 [Linsitinib] (partner 1 µM)
The method in brief: as §1

Compound in the assay “Ponatinib + Decitabine”: Cc1ccc(C(=O)Nc2ccc(CN3CCN(C)CC3)c(C(F)(F)F)c2)cc1C#Cc1cnc2cccnn12 [Ponatinib] + Nc1ncn([C@H]2C[C@H](O)[C@@H](CO)O2)c(=O)n1 [Decitabine] (partner 2 µM)
The method in brief:
as §1

Compound in the assay “Ponatinib + Luminespib”: Cc1ccc(C(=O)Nc2ccc(CN3CCN(C)CC3)c(C(F)(F)F)c2)cc1C#Cc1cnc2cccnn12 [Ponatinib] + CCNC(=O)c1noc(-c2cc(C(C)C)c(O)cc2O)c1-c1ccc(CN2CCOCC2)cc1 [Luminespib] (partner 0.01 µM)
The method in brief: as §1

Take A-427: the relative viability with Ponatinib + Phenformin (first compound 0.002 µM) was found to be 0.34; with Ponatinib + Phenformin (first compound 0.006325 µM), 0.398; in the assay with Ponatinib + Phenformin (first compound 0.06325 µM) it was 0.244; with Ponatinib + Phenformin (first compound 0.2 µM) it was 0.225; in the assay with Pazopanib + Linsitinib (first compound 0.01 µM), 1.09; with Pazopanib + Linsitinib (first compound 0.03162 µM), 1.09. For the same cell line, the relative viability with Pazopanib + Linsitinib (first compound 0.1 µM) was 1.13; with Pazopanib + Linsitinib (first compound 0.3162 µM) it was 1.14; in the assay with Pazopanib + Linsitinib (first compound 1 µM) it was 1.16; in the assay with Ponatinib + Decitabine (first compound 0.002 µM), 0.547; in the assay with Ponatinib + Decitabine (first compound 0.006325 µM), 0.507; in the assay with Ponatinib + Decitabine (first compound 0.06325 µM) it was 0.592. Besides, the relative viability came out at 0.49 with Ponatinib + Decitabine (first compound 0.2 µM); 0.908 in the assay with Ponatinib + Luminespib (first compound 0.002 µM); 0.799 with Ponatinib + Luminespib (first compound 0.006325 µM); 1.08 with Ponatinib + Luminespib (first compound 0.06325 µM); 0.75 in the assay with Ponatinib + Luminespib (first compound 0.2 µM).
Turning to NCI-H460, the relative viability with Ponatinib + Phenformin (first compound 0.002 µM) is 0.489; in the assay with Ponatinib + Phenformin (first compound 0.006325 µM) it was 0.501; in the assay with Ponatinib + Phenformin (first compound 0.06325 µM), 0.549; in the assay with Ponatinib + Phenformin (first compound 0.2 µM) it was 0.573; with Pazopanib + Linsitinib (first compound 0.01 µM) it was 0.823; with Pazopanib + Linsitinib (first compound 0.03162 µM) it was 1.13. For the same cell line, the relative viability amounted to 0.838 with Pazopanib + Linsitinib (first compound 0.1 µM); 0.98 with Pazopanib + Linsitinib (first compound 0.3162 µM); 0.827 with Pazopanib + Linsitinib (first compound 1 µM); 0.533 with Ponatinib + Decitabine (first compound 0.002 µM); 0.471 with Ponatinib + Decitabine (first compound 0.006325 µM); 0.559 with Ponatinib + Decitabine (first compound 0.06325 µM). Further, the relative viability with Ponatinib + Decitabine (first compound 0.2 µM) was found to be 0.454; in the assay with Ponatinib + Luminespib (first compound 0.002 µM), 0.0243; with Ponatinib + Luminespib (first compound 0.006325 µM), 0.0378; with Ponatinib + Luminespib (first compound 0.06325 µM) it was 0.0319; in the assay with Ponatinib + Luminespib (first compound 0.2 µM) it was 0.0324.
Consider NCI-H1703, for which the relative viability turned out to be 0.441 with Pazopanib + Linsitinib (first compound 0.01 µM), 0.264 with Pazopanib + Linsitinib (first compound 0.1 µM), 0.243 with Pazopanib + Linsitinib (first compound 0.3162 µM) and 0.301 with Pazopanib + Linsitinib (first compound 1 µM).
In the case of NCI-H1792, the relative viability in the assay with Ponatinib + Phenformin (first compound 0.002 µM) stood at 0.268; with Ponatinib + Phenformin (first compound 0.006325 µM), 0.22; with Ponatinib + Phenformin (first compound 0.06325 µM) it was 0.354; with Ponatinib + Phenformin (first compound 0.2 µM), 0.205; with Pazopanib + Linsitinib (first compound 0.03162 µM) it was 0.534; in the assay with Pazopanib + Linsitinib (first compound 0.1 µM), 0.601. In addition, the relative viability was 0.522 with Pazopanib + Linsitinib (first compound 0.3162 µM); 0.588 with Pazopanib + Linsitinib (first compound 1 µM); 0.476 in the assay with Ponatinib + Decitabine (first compound 0.002 µM); 0.488 with Ponatinib + Decitabine (first compound 0.006325 µM); 0.516 with Ponatinib + Decitabine (first compound 0.06325 µM); 0.495 with Ponatinib + Decitabine (first compound 0.2 µM). In addition, the relative viability was determined as 0.354 with Ponatinib + Luminespib (first compound 0.002 µM), 0.422 with Ponatinib + Luminespib (first compound 0.006325 µM), 0.465 with Ponatinib + Luminespib (first compound 0.06325 µM) and 0.389 with Ponatinib + Luminespib (first compound 0.2 µM).
As for Calu-6, the relative viability worked out at 0.865 with Pazopanib + Linsitinib (first compound 0.01 µM); 1.07 with Pazopanib + Linsitinib (first compound 0.03162 µM); 0.957 with Pazopanib + Linsitinib (first compound 0.1 µM); 0.908 in the assay with Pazopanib + Linsitinib (first compound 0.3162 µM); 1.04 in the assay with Pazopanib + Linsitinib (first compound 1 µM).
As to SW 1573, the relative viability with Ponatinib + Phenformin (first compound 0.002 µM) came to 0.35; with Ponatinib + Phenformin (first compound 0.006325 µM) it was 0.392; in the assay with Ponatinib + Phenformin (first compound 0.06325 µM), 0.292; with Ponatinib + Phenformin (first compound 0.2 µM) it was 0.405; with Pazopanib + Linsitinib (first compound 0.01 µM) it was 0.716; in the assay with Pazopanib + Linsitinib (first compound 0.03162 µM) it was 0.798. Further, the relative viability came out at 0.817 in the assay with Pazopanib + Linsitinib (first compound 0.1 µM); 0.935 in the assay with Pazopanib + Linsitinib (first compound 0.3162 µM); 1.01 with Pazopanib + Linsitinib (first compound 1 µM); 0.463 with Ponatinib + Decitabine (first compound 0.002 µM); 0.458 with Ponatinib + Decitabine (first compound 0.006325 µM); 0.695 with Ponatinib + Decitabine (first compound 0.06325 µM). Moreover, the relative viability is 0.46 in the assay with Ponatinib + Decitabine (first compound 0.2 µM); 0.266 with Ponatinib + Luminespib (first compound 0.002 µM); 0.321 in the assay with Ponatinib + Luminespib (first compound 0.006325 µM); 0.25 in the assay with Ponatinib + Luminespib (first compound 0.06325 µM); 0.259 with Ponatinib + Luminespib (first compound 0.2 µM).
